Measurements: US12077503B2, “Substituted cyclic amides and their use as herbicides” (FMC CORPORATION, priority 2015, dated 2024)

Assays:
Format in all cases: in vivo
corn (Zea mays) [1] = assay: Test G Pre-Emergence Protocol; settings: evaluated after 13 days; for plant injury at 15.625 g/ha / plant injury at 62.5 g/ha / plant injury at 250 g/ha: Zea mays, pre-emergence, 312 h; for plant injury at 15.625 g/ha / plant injury at 250 g/ha: read-out: Corn damage rating (100=total damage to plant; 0=no damage to plant); for plant injury at 62.5 g/ha: 62.5 g ai/ha, 100=total damage to plant, 0=no damage to plant, read-out: Corn damage rating
In short: (§1)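 Spraying took place one day after sowing, at 15.625, 62.5 or 250 g/ha, using an acetone/water (50:50) spray solution containing 0.5% Tween 20. Plants were kept under glasshouse conditions (24/16 °C, 14 h light, 65% humidity, watered twice daily), and injury was rated 0–100 at day 13.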

[2] = test system: ivy-leaved morning glory (Ipomoea hederacea); assay: Test G Pre-Emergence Protocol; settings: evaluated after 13 days; for pest or weed control at 15.625 g/ha / pest or weed control at 62.5 g/ha / pest or weed control at 250 g/ha: Ipomoea, pre-emergence, 312 h; for pest or weed control at 15.625 g/ha: 15.625 g ai/ha; for pest or weed control at 15.625 g/ha / pest or weed control at 250 g/ha: read-out: Morningglory, Ivy-leaved damage rating (100=total damage to plant; 0=no damage to plant); for pest or weed control at 62.5 g/ha: 62.5 g ai/ha, 100=total damage to plant, 0=no damage to plant, read-out: Morningglory, Ivy-leaved damage rating
In short: as §1

[3] = test system: giant foxtail (Setaria faberi); assay: Test G Pre-Emergence Protocol; settings: Setaria faberi, pre-emergence, 312 h, evaluated after 13 days; for pest or weed control at 15.625 g/ha: 15.625 g ai/ha; for pest or weed control at 15.625 g/ha / pest or weed control at 250 g/ha: read-out: Foxtail, Giant damage rating (100=total damage to plant; 0=no damage to plant); for pest or weed control at 62.5 g/ha: 62.5 g ai/ha, 100=total damage to plant, 0=no damage to plant, read-out: Foxtail, Giant damage rating; for pest or weed control at 250 g/ha: 250 g ai/ha
In short: as §1

[4] = test system: velvetleaf (Abutilon theophrasti); assay: Test G Pre-Emergence Protocol; settings: evaluated after 13 days; for pest or weed control at 15.625 g/ha / pest or weed control at 62.5 g/ha / pest or weed control at 250 g/ha: Abutilon theophrasti, pre-emergence, 312 h; for pest or weed control at 15.625 g/ha / pest or weed control at 250 g/ha: read-out: Velvetleaf damage rating (100=total damage to plant; 0=no damage to plant); for pest or weed control at 62.5 g/ha: 62.5 g ai/ha, 100=total damage to plant, 0=no damage to plant, read-out: Velvetleaf damage rating
In short: as §1

[5] = test system: barnyardgrass (Echinochloa crus-galli); assay: Test G Pre-Emergence Protocol; settings: Echinochloa crus-galli, pre-emergence, 312 h, evaluated after 13 days; for pest or weed control at 15.625 g/ha: 15.625 g ai/ha; for pest or weed control at 15.625 g/ha / pest or weed control at 250 g/ha: read-out: Barnyardgrass damage rating (100=total damage to plant; 0=no damage to plant); for pest or weed control at 62.5 g/ha: 62.5 g ai/ha, 100=total damage to plant, 0=no damage to plant, read-out: Barnyardgrass damage rating; for pest or weed control at 250 g/ha: 250 g ai/ha
In short: as §1

[6] = test system: redroot pigweed (Amaranthus retroflexus); assay: Test G Pre-Emergence Protocol; settings: evaluated after 13 days; for pest or weed control at 15.625 g/ha / pest or weed control at 62.5 g/ha / pest or weed control at 250 g/ha: Amaranthus retroflexus, pre-emergence, 312 h; for pest or weed control at 15.625 g/ha / pest or weed control at 250 g/ha: read-out: Pigweed, Redroot damage rating (100=total damage to plant; 0=no damage to plant); for pest or weed control at 62.5 g/ha: 62.5 g ai/ha, 100=total damage to plant, 0=no damage to plant, read-out: Pigweed, Redroot damage rating
In short: as §1

corn (Zea mays) [7] = assay: Test G Post-Emergence Protocol; settings: Zea mays, post-emergence, 312 h, read-out: Corn damage rating; for plant injury at 15.625 g/ha: 15.625 g ai/ha, evaluated after 13 days (100=total damage to plant; 0=no damage to plant); for plant injury at 62.5 g/ha: 62.5 g ai/ha; for plant injury at 62.5 g/ha / plant injury at 250 g/ha: evaluated after 13 days, 100=total damage to plant, 0=no damage to plant; for plant injury at 250 g/ha: 250 g ai/ha
In short: (§2)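 Scores run 0 (no damage) to 100 (total damage) and were taken 13 days after spraying. Plants had been raised in pots for 8 days under glasshouse control (24/16 °C, 14 h photoperiod, 65% humidity) and then treated at 15.625, 62.5 or 250 g/ha.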

[8] = test system: ivy-leaved morning glory (Ipomoea hederacea); assay: Test G Post-Emergence Protocol; settings: Ipomoea, post-emergence, 312 h, read-out: Morningglory, Ivy-leaved damage rating; for pest or weed control at 15.625 g/ha: 15.625 g ai/ha, evaluated after 13 days (100=total damage to plant; 0=no damage to plant); for pest or weed control at 62.5 g/ha: 62.5 g ai/ha; for pest or weed control at 62.5 g/ha / pest or weed control at 250 g/ha: evaluated after 13 days, 100=total damage to plant, 0=no damage to plant; for pest or weed control at 250 g/ha: 250 g ai/ha
In short: as §2

[9] = test system: giant foxtail (Setaria faberi); assay: Test G Post-Emergence Protocol; settings: Setaria faberi, post-emergence, 312 h, read-out: Foxtail, Giant damage rating; for pest or weed control at 15.625 g/ha: 15.625 g ai/ha, evaluated after 13 days (100=total damage to plant; 0=no damage to plant); for pest or weed control at 62.5 g/ha: 62.5 g ai/ha; for pest or weed control at 62.5 g/ha / pest or weed control at 250 g/ha: evaluated after 13 days, 100=total damage to plant, 0=no damage to plant; for pest or weed control at 250 g/ha: 250 g ai/ha
In short: as §2

[10] = test system: velvetleaf (Abutilon theophrasti); assay: Test G Post-Emergence Protocol; settings: Abutilon theophrasti, post-emergence, 312 h, read-out: Velvetleaf damage rating; for pest or weed control at 15.625 g/ha: 15.625 g ai/ha, evaluated after 13 days (100=total damage to plant; 0=no damage to plant); for pest or weed control at 62.5 g/ha: 62.5 g ai/ha; for pest or weed control at 62.5 g/ha / pest or weed control at 250 g/ha: evaluated after 13 days, 100=total damage to plant, 0=no damage to plant; for pest or weed control at 250 g/ha: 250 g ai/ha
In short: as §2

[11] = test system: barnyardgrass (Echinochloa crus-galli); assay: Test G Post-Emergence Protocol; settings: Echinochloa crus-galli, post-emergence, 312 h, read-out: Barnyardgrass damage rating; for pest or weed control at 15.625 g/ha: 15.625 g ai/ha, evaluated after 13 days (100=total damage to plant; 0=no damage to plant); for pest or weed control at 62.5 g/ha: 62.5 g ai/ha; for pest or weed control at 62.5 g/ha / pest or weed control at 250 g/ha: evaluated after 13 days, 100=total damage to plant, 0=no damage to plant; for pest or weed control at 250 g/ha: 250 g ai/ha
In short: as §2

[12] = test system: redroot pigweed (Amaranthus retroflexus); assay: Test G Post-Emergence Protocol; settings: Amaranthus retroflexus, post-emergence, 312 h, read-out: Pigweed, Redroot damage rating; for pest or weed control at 15.625 g/ha: 15.625 g ai/ha, evaluated after 13 days (100=total damage to plant; 0=no damage to plant); for pest or weed control at 62.5 g/ha: 62.5 g ai/ha; for pest or weed control at 62.5 g/ha / pest or weed control at 250 g/ha: evaluated after 13 days, 100=total damage to plant, 0=no damage to plant; for pest or weed control at 250 g/ha: 250 g ai/ha
In short: as §2

SMILES	plant injury at 62.5 g/ha (corn (Zea mays) [1]) [%]	pest or weed control at 15.625 g/ha [2] [%]	pest or weed control at 62.5 g/ha [2] [%]	pest or weed control at 15.625 g/ha [3] [%]	pest or weed control at 62.5 g/ha [3] [%]	pest or weed control at 250 g/ha [3] [%]	pest or weed control at 62.5 g/ha [4] [%]	pest or weed control at 15.625 g/ha [5] [%]	pest or weed control at 62.5 g/ha [5] [%]	pest or weed control at 250 g/ha [5] [%]	pest or weed control at 62.5 g/ha [6] [%]	plant injury at 15.625 g/ha (corn (Zea mays) [7]) [%]	plant injury at 62.5 g/ha (corn (Zea mays) [7]) [%]	plant injury at 250 g/ha (corn (Zea mays) [7]) [%]	pest or weed control at 15.625 g/ha [8] [%]	pest or weed control at 62.5 g/ha [8] [%]	pest or weed control at 250 g/ha [8] [%]	pest or weed control at 15.625 g/ha [9] [%]	pest or weed control at 62.5 g/ha [9] [%]	pest or weed control at 250 g/ha [9] [%]	also measured
Cc1ccc(C2CN(C)C(=O)C2C(=O)Nc2cccc(F)c2F)cc1[N+](=O)[O-] (stereo not drawn) [Compound 1722]	30	0	0	60	70	90	0	0	60	80	10	10	0	80	20	30	70	60	70	80	plant injury at 15.625 g/ha (corn (Zea mays) [1]; 15.625 g ai/ha): 10%; plant injury at 250 g/ha (corn (Zea mays) [1]; 250 g ai/ha): 70%; pest or weed control at 250 g/ha ([2]; 250 g ai/ha): 0%; pest or weed control at 15.625 g/ha ([4]; 15.625 g ai/ha): 0%; pest or weed control at 250 g/ha ([4]; 250 g ai/ha): 20%; pest or weed control at 15.625 g/ha ([6]; 15.625 g ai/ha): 0%; pest or weed control at 250 g/ha ([6]; 250 g ai/ha): 30%; pest or weed control at 15.625 g/ha [10]: 0%; pest or weed control at 62.5 g/ha [10]: 10%; pest or weed control at 250 g/ha [10]: 10%; pest or weed control at 15.625 g/ha [11]: 10%; pest or weed control at 62.5 g/ha [11]: 60%; pest or weed control at 250 g/ha [11]: 80%; pest or weed control at 15.625 g/ha [12]: 0%; pest or weed control at 62.5 g/ha [12]: 10%; pest or weed control at 250 g/ha [12]: 30%
CCCOc1cc(C2CN(C)C(=O)C2C(=O)Nc2cccc(F)c2F)cc(C(F)(F)F)c1 (stereo not drawn) [Compound 1725]	0	0	0	20	50	80	0	20	50	70	0	10	0	70	30	70	70	0	70	80	plant injury at 15.625 g/ha (corn (Zea mays) [1]; 15.625 g ai/ha): 0%; plant injury at 250 g/ha (corn (Zea mays) [1]; 250 g ai/ha): 30%; pest or weed control at 250 g/ha ([2]; 250 g ai/ha): 0%; pest or weed control at 15.625 g/ha ([4]; 15.625 g ai/ha): 0%; pest or weed control at 250 g/ha ([4]; 250 g ai/ha): 0%; pest or weed control at 15.625 g/ha ([6]; 15.625 g ai/ha): 0%; pest or weed control at 250 g/ha ([6]; 250 g ai/ha): 20%; pest or weed control at 15.625 g/ha [10]: 0%; pest or weed control at 62.5 g/ha [10]: 0%; pest or weed control at 250 g/ha [10]: 10%; pest or weed control at 15.625 g/ha [11]: 0%; pest or weed control at 62.5 g/ha [11]: 30%; pest or weed control at 250 g/ha [11]: 70%; pest or weed control at 15.625 g/ha [12]: 0%; pest or weed control at 62.5 g/ha [12]: 10%; pest or weed control at 250 g/ha [12]: 60%
COc1c(Cl)ccc([C@H]2CN(C)C(=O)[C@@H]2C(=O)Nc2cccc(F)c2F)c1F [Compound 1773]	80	0	60	90	90	90	30	90	90	90	20	70	80	80	20	10	60	80	80	80	Corn damage rating (100=total damage to plant; 0=no damage to plant) (corn (Zea mays) [1]; 15.625 g ai/ha): 70; Corn damage rating (100=total damage to plant; 0=no damage to plant) (corn (Zea mays) [1]; 250 g ai/ha): 80; Morningglory, Ivy-leaved damage rating (100=total damage to plant; 0=no damage to plant) ([2]; 250 g ai/ha): 80; Velvetleaf damage rating (100=total damage to plant; 0=no damage to plant) ([4]; 15.625 g ai/ha): 10; Velvetleaf damage rating (100=total damage to plant; 0=no damage to plant) ([4]; 250 g ai/ha): 60; Pigweed, Redroot damage rating (100=total damage to plant; 0=no damage to plant) ([6]; 15.625 g ai/ha): 20; Pigweed, Redroot damage rating (100=total damage to plant; 0=no damage to plant) ([6]; 250 g ai/ha): 70; pest or weed control at 15.625 g/ha [10]: 0%; pest or weed control at 62.5 g/ha [10]: 20%; pest or weed control at 250 g/ha [10]: 40%; pest or weed control at 15.625 g/ha [11]: 80%; pest or weed control at 62.5 g/ha [11]: 80%; pest or weed control at 250 g/ha [11]: 80%; pest or weed control at 15.625 g/ha [12]: 20%; pest or weed control at 62.5 g/ha [12]: 20%; pest or weed control at 250 g/ha [12]: 40%
